Test results reported in patent publication CN109096271A, “噻吩类化合物及其作为usp7抑制剂和抗肿瘤药物的应用” (China Pharmaceutical University, priority 2018, dated 2018).

Legend:
[1] = molecular target: T1, full-length USP7 enzyme [全长USP7酶] (Homo sapiens, UniProt Q93009); experiment: Inhibition of full-length USP7 enzyme in vitro (Ub-AMC method); assay type: biochemical; conditions: half-maximal inhibitory concentration; full-length USP7, Ub-AMC substrate, 30 min preincubation at room temperature (25℃), 2 h reaction, pH 7.6; read-out: EC50 (the source's name)
T1 construct: 全长USP7蛋白,Ub-AMC底物蛋白,实验缓冲液
T1 sequence (Q93009 whole entry): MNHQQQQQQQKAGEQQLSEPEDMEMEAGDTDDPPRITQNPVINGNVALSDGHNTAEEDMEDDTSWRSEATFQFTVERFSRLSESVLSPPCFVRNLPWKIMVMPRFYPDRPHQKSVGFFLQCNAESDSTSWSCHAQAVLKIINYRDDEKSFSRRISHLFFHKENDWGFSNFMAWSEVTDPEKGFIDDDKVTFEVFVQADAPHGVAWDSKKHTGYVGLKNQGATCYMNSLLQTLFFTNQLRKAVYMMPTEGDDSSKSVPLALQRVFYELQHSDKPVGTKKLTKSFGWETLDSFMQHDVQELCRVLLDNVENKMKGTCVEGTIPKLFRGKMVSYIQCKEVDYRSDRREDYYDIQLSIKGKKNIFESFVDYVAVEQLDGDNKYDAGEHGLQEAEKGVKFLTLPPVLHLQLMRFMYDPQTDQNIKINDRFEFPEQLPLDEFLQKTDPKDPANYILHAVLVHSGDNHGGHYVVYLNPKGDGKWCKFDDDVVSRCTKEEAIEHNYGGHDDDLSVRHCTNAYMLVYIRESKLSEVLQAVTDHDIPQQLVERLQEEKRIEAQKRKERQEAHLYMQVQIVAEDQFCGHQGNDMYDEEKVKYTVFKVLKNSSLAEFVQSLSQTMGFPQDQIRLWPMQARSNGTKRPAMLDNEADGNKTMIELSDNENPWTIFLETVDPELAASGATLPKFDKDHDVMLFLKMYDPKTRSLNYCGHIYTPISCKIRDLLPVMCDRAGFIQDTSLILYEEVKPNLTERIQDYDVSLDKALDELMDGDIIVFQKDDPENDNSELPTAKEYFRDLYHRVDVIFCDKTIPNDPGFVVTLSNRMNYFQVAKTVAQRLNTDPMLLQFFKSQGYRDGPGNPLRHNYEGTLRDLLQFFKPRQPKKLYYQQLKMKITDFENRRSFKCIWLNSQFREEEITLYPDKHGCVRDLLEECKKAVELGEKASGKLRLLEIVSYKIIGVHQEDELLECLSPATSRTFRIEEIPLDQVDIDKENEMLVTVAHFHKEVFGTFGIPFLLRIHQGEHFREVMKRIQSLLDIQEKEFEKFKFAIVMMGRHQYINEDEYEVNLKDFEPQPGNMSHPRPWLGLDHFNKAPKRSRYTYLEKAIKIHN

[2] = test system: human colon cancer cells HCT-116 [人结肠癌细胞HCT-116]; experiment: Antiproliferative activity on human colon cancer HCT-116 cells (MTT staining); assay type: cell-based; conditions: HCT-116 wild type, 72 h

| Compound | IC50 [1] | IC50 ([2]; Homo sapiens) | IC50 [2] |
| --- | --- | --- | --- |
| CC1CS(=O)(=O)c2cc(NC(=O)c3cc([N+](=O)[O-])c(Sc4c(Cl)cncc4Cl)o3)ccc21 (stereo not shown) [I-1, 5-((3,5-二氯吡啶-4-基)硫基)-N-(3-甲基-1,1-二氧代-2,3-二氢苯并[b]噻吩-6-基)-4-硝基呋喃-2-甲酰胺] | > 50 µM | > 50 µM |  |
| CC1CS(=O)(=O)c2cc(NC(=O)c3cc([N+](=O)[O-])c(Sc4c(Cl)cncc4Cl)[nH]3)ccc21 (stereo not shown) [I-2, 5-((3,5-二氯吡啶-4-基)硫基)-N-(3-甲基-1,1-二氧代-2,3-二氢苯并[b]噻吩-6-基)-4-硝基-1H-吡咯-2-甲酰胺] | > 50 µM | > 50 µM |  |
| CC1CS(=O)(=O)c2cc(NC(=O)c3cc([N+](=O)[O-])c(Sc4c(Cl)cncc4Cl)n3C)ccc21 (stereo not shown) [I-3, 5-((3,5-二氯吡啶-4-基)硫基)-1-甲基-N-(3-甲基-1,1-二氧代-2,3-二氢苯并[b] 噻吩-6-基)-4-硝基-1H-吡咯-2-甲酰胺] | > 50 µM | > 50 µM |  |
| CN1CCC(Oc2ccc(NC(=O)c3cc([N+](=O)[O-])c(Sc4c(Cl)cncc4Cl)s3)cc2)C1 (stereo not shown) [I-4, 5-((3,5-二氯吡啶-4-基)硫基)-N-(4-((1-甲基吡咯烷-3-基)氧基)苯基) -4-硝基噻吩-2-甲酰胺] | 4.45 µM | 2.65 µM |  |
| CN1CCCC(Oc2ccc(NC(=O)c3cc([N+](=O)[O-])c(Sc4c(Cl)cncc4Cl)s3)cc2)CC1 (stereo not shown) [I-6, 5-((3,5-二氯吡啶-4-基)硫基)-N-(4-((1-甲基吖庚烷-4-基)氧基)苯基)-4-硝基噻吩-2-甲酰胺] | 4.56 µM | 1.98 µM |  |
| CN1CCCN(c2ccc(NC(=O)c3cc([N+](=O)[O-])c(Sc4c(Cl)cncc4Cl)s3)cc2)CC1 [I-7, 5-((3,5-二氯吡啶-4-基)硫基)-N-(4-(4-甲基-1,4-二氮杂环庚烷-1-基)苯基)-4-硝基噻吩-2-甲酰胺] | 6.9 µM | 3.48 µM |  |
| CS(=O)(=O)N1CCN(c2ccc(NC(=O)c3cc([N+](=O)[O-])c(Sc4c(Cl)cncc4Cl)s3)cc2)CC1 [I-9, 5-((3,5-二氯吡啶-4-基)硫基)-N-(4-(4-(甲基磺酰基)哌嗪-1-基)苯基) -4-硝基噻吩-2-甲酰胺] | 42.5 µM | 2.99 µM |  |
| CN1CCN(CC(=O)Nc2ccc(NC(=O)c3cc([N+](=O)[O-])c(Sc4c(Cl)cncc4Cl)s3)cc2)CC1 [I-15, 5-((3,5-二氯吡啶-4-基)硫基)-N-(4-(2-(4-甲基哌嗪-1-基)乙酰氨基)苯 基)-4-硝基噻吩-2-甲酰胺] | 7.26 µM | 4.87 µM |  |
| O=C(NCCN1CCOCC1)c1cc([N+](=O)[O-])c(Sc2c(Cl)cncc2Cl)s1 [I-16, 5-((3,5-二氯吡啶-4-基)硫基)-N-(2-吗啉代乙基)-4-硝基噻吩-2-甲酰胺] | 4.59 µM | 4.82 µM |  |
| CN(C)CCN1CCN(C(=O)c2cc([N+](=O)[O-])c(Sc3c(Cl)cncc3Cl)s2)CC1 [I-17, (5-((3,5-二氯吡啶-4-基)硫基)-4-硝基噻吩-2-基)(4-(2-(二甲基氨基)乙 基)哌嗪-1-基)甲酮] | 6.59 µM | 8.53 µM |  |
| O=C(NCCc1ccc2c(c1)OCO2)c1cc([N+](=O)[O-])c(Sc2c(Cl)cncc2Cl)s1 [I-18, N-(2-(苯并[d][1,3]二氧杂环戊烯-5-基)乙基)-5-((3,5-二氯吡啶-4-基)硫基)-4-硝基噻吩-2-甲酰胺] | > 50 µM | > 50 µM |  |

The next compounds have a lower IC50 [1] than those just listed; values first:

| IC50 [1] | IC50 ([2]; Homo sapiens) | IC50 [2] | Compound |
| --- | --- | --- | --- |
| 3.71 µM |  | 3.26 µM | ((3,5-二氯吡啶-4-基)硫基)-N-(4-((2-(4-甲基哌嗪-1-基)乙酰氨基)甲基) 苯基)-4-硝基噻吩-2-甲酰胺 [I-13] |
| 3.65 µM | 4.74 µM |  | CN1CCN(CC(=O)NCc2ccc(NC(=O)c3cc([N+](=O)[O-])c(Sc4c(Cl)cncc4Cl)s3)cc2)CC1 [I-14, ((3,5-二氯吡啶-4-基)硫基)-N-(4-((2-(4-甲基哌嗪-1-基)乙酰氨基)甲基) 苯基)-4-硝基噻吩-2-甲酰胺] |
| 2.96 µM | 3.36 µM |  | CN1CCN(C(=O)c2ccc(NC(=O)c3cc([N+](=O)[O-])c(Sc4c(Cl)cncc4Cl)s3)cc2)CC1 [I-10, 5-((3,5-二氯吡啶-4-基)硫基)-N-(4-(4-甲基哌嗪-1-羰基)苯基)-4-硝基噻吩-2-甲酰胺] |
| 2.85 µM | 2.39 µM |  | CN1CCC(Oc2ccc(NC(=O)c3cc([N+](=O)[O-])c(Sc4c(Cl)cncc4Cl)s3)cc2)CC1 [I-5, 5-((3,5-二氯吡啶-4-基)硫基)-N-(4-((1-甲基哌啶-4-基)氧基)苯基)-4-硝基噻吩-2-甲酰胺] |
| 2.5 µM | 7.63 µM |  | CN(C)CCN1CCN(C(=O)c2ccc(NC(=O)c3cc([N+](=O)[O-])c(Sc4c(Cl)cncc4Cl)s3)cc2)CC1 [I-11, 5-((3,5-二氯吡啶-4-基)硫基)-N-(4-(4-(2-(二甲基氨基)乙基)哌嗪-1-羰基)苯基)-4-硝基噻吩-2-甲酰胺] |
| 1.18 µM | 1.82 µM |  | O=C(NCCN1CCOCC1)c1ccc(NC(=O)c2cc([N+](=O)[O-])c(Sc3c(Cl)cncc3Cl)s2)cc1 [I-12, ((3,5-二氯吡啶-4-基)硫基)-N-(4-((2-吗啉代乙基)氨基甲酰基)苯基)-4-硝基噻吩-2-甲酰胺] |
